The assay addresses T1, Wis1 (Schizosaccharomyces pombe, UniProt P33886).
T1 construct: full length, N-terminal HA3 tag (JJS6, thermal shift) or N-terminal HA and C-terminal His6 tags (JJS7, kinase assay); nmt1 promoter at the chromosomal locus; expressed in S. pombe
T1 sequence (P33886 1-605): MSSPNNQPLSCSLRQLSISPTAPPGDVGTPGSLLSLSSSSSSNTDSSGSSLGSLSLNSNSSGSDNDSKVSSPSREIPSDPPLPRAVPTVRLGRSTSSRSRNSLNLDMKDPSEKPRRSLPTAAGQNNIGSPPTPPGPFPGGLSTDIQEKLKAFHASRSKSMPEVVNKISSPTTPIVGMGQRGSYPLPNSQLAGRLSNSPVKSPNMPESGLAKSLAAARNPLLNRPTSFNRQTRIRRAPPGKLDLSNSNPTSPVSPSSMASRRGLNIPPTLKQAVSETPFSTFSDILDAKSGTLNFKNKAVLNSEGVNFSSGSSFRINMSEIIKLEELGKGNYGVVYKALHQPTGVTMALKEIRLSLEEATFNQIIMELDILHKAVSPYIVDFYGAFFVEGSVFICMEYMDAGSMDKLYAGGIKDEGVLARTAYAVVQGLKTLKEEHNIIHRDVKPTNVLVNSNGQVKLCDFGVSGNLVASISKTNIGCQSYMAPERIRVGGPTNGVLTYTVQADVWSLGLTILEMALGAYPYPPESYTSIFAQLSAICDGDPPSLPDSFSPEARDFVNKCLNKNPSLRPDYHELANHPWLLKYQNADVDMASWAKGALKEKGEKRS
Nature of the assay: thermal shift in crude lysate, Western blot of soluble HA-Wis1. It counts as biochemical. For orientation: In western blotting, separated proteins are transferred to a membrane and probed.

What is called ΔTm is the change in melting temperature against a reference sample. Take `CCOc1cccc(-c2cc(=O)c3ccccc3o2)c1N` [INR119]: the ΔTm at 3 µM came to 2 °C.

The record behind these values is publication PMC7076255, “A Redox-Sensitive Thiol in Wis1 Modulates the Fission Yeast Mitogen-Activated Protein Kinase Response to H2O2 and Is the Target of a Small Molecule” (Molecular and Cellular Biology, 2020).
